Data reported in patent publication US20230250096A1, “SUBSTITUTED PHENYL-1H-PYRROLO[2,3-c] PYRIDINE DERIVATIVES” (Janssen Pharmaceutica NV, priority 2021, published 2023).

Experiments:
[1] = target: T1, menin/MLL (terbium chelate-labeled menin, FITC-MBM1 peptide) (Homo sapiens, UniProt O00255, T541A); experiment: Menin/MLL homogenous time-resolved fluorescence (HTRF) assay; format: binding; conditions: 30 min incubation
T1 construct: Menin (a.a 1-610-6xhis tag, 2.3 mg/mL in 20 mM Hepes)
T1 sequence (O00255 with tags, fused parts or gaps T541A): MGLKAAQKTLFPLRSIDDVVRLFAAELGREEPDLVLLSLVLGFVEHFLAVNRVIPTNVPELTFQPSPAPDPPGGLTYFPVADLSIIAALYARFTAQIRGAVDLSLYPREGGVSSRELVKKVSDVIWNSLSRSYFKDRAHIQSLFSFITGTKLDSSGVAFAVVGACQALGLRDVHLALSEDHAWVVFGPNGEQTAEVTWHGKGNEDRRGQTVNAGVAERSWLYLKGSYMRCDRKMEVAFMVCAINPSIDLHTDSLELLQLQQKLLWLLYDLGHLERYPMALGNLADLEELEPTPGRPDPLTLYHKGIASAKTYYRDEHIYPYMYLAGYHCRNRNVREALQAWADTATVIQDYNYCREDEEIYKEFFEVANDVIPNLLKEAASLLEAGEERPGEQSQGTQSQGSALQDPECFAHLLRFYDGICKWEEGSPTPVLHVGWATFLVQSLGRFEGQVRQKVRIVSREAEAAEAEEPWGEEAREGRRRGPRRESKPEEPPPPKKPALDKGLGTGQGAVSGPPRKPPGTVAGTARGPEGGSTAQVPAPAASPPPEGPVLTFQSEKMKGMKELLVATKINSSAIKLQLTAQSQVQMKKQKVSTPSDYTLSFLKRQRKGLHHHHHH
Summary of the method: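 Competition binding read by time-resolved FRET (FITC 520 nm over terbium 490 nm) after compound meets labeled menin 1-610-His […] for 30 min, then FITC-MBM1 (75 nM) for 15 min, ambient temperature, 0.5% DMSO. Eleven-point four-fold dilutions, usually starting at 10 μM, fitted to four-parameter curves for IC50.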

[2] = system: MEIS1 mRNA expression; experiment: MEIS1 mRNA expression assay (Quantigene Singleplex) in MOLM14 cells; format: cell-based, human; conditions: 48 hours incubation
Summary of the method: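 Read-out: MEIS1 transcript counts, background-subtracted and divided by RPL28, expressed as fold change over DMSO-treated cells, then dose-response modelled for IC50. MOLM14 cells (3,750/well) received graded compound for 48 h before lysis and QuantiGene hybridization at 55 °C.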

CC(=O)N1C[C@@H]2CN([C@H]3C[C@@H](C(C(C)C)N4CC[C@@H](Cc5cn(-c6ccc(F)cc6C(=O)N(C)C(C)C)c6cncc(C)c56)C4)C3)C[C@H]2C1 (mixture of isomers) [Compound 20]
IC50 [1]: ~0.19 nM | IC50 ([2]; Homo sapiens, MOLM-14, 48 h): < 1.7 nM

Cc1cncc2c1c(C[C@H]1CCN([C@@H](C)C3CCOCC3)C1)cn2-c1ccc(F)cc1[S@@](=N)(=O)C(C)C (single isomer, unassigned) [Compound 183b]
IC50 [1]: 2.61 nM | IC50 ([2]; Homo sapiens, MOLM-14, 48 h): ~2040 nM

CC(=O)N1C[C@@H]2CN([C@H]3C[C@@H](C(C(C)C)N4CC(Cc5cn(-c6ccc(F)cc6C(=O)N(C)C(C)C)c6cncc(Cl)c56)C4)C3)C[C@H]2C1 (single isomer, unassigned) [Compound 40a]
IC50 [1]: 0.841 nM | IC50 ([2]; Homo sapiens, MOLM-14, 48 h): ~540 nM

CC(=O)N1C[C@@H]2CN(CCCC(C(C)C)N3CC[C@H](Cc4cn(-c5ccc(F)cc5C(=O)N(C)C(C)C)c5cncc(C)c45)C3)C[C@H]2C1 (mixture of isomers) [Compound 13]
IC50 [1]: 0.124 nM | IC50 ([2]; Homo sapiens, MOLM-14, 48 h): 6 nM

Cc1cncc2c1c(C[C@@H]1CCN(CC3CCN(C(=O)C(C)C)CC3)C1)cn2-c1ccc(F)cc1C(=O)N1CC(O)CC1C (stereo partly shown) [Compound 333]
IC50 [1]: 0.251 nM | IC50 ([2]; Homo sapiens, MOLM-14, 48 h): ~394 nM

Cc1cncc2c1c(C[C@@H]1CCN(CC3CCN(C(=O)C(C)(C)O)CC3)C1)cn2-c1ccc(F)cc1C(=O)N1[C@H](C)CC[C@@H]1C [Compound 344]
IC50 [1]: ~0.058 nM | IC50 ([2]; Homo sapiens, MOLM-14, 48 h): 14 nM

Cc1cncc2c1c(CC1CCN(CC3CCN(C(=O)CO)CC3)C1)cn2-c1ccc(F)cc1C(=O)N(C)C(C)C (single isomer, unassigned) [Compound 87]
IC50 [1]: 0.042 nM | IC50 ([2]; Homo sapiens, MOLM-14, 48 h): 27 nM

CC(=O)N1CCCC(N2CC(Cc3cn(-c4ccc(F)cc4C(=O)N(C)C(C)C)c4cncc(C)c34)C2)CC1 (stereo not shown) [Compound 295]
IC50 [1]: 0.171 nM | IC50 ([2]; Homo sapiens, MOLM-14, 48 h): 338 nM

Cc1cncc2c1c(C[C@@H]1CCN(CC3CCOCC3)C1)cn2-c1ccc(F)cc1C(=O)N1CC[C@@H](O)C1(C)C (single isomer, unassigned) [Compound 364a]
IC50 [1]: 0.098 nM | IC50 ([2]; Homo sapiens, MOLM-14, 48 h): 225 nM

Cc1cncc2c1c(CC1CN(CC3CCN(S(C)(=O)=O)CC3)C1)cn2-c1ccc(F)cc1C(=O)N(C)C(C)C [Compound 64]
IC50 [1]: 0.284 nM | IC50 ([2]; Homo sapiens, MOLM-14, 48 h): ~39 nM

CC(=O)N1CCC(N2CC[C@@H](Cc3cn(-c4ccc(F)cc4C(=O)N(C)C(C)C)c4cncc(C)c34)C2)C(CO)C1 (mixture of isomers) [Compound 248]
IC50 [1]: 0.255 nM | IC50 ([2]; Homo sapiens, MOLM-14, 48 h): 11 nM

CC(=O)N1CCC(C)C(N2CC[C@@H](Cc3cn(-c4ccc(F)cc4C(=O)N(C)C(C)C)c4cncc(C)c34)C2)C1 (stereo partly shown) [Compound 242]
IC50 [1]: 0.811 nM | IC50 [2]: > 1000 nM

Cc1cncc2c1c(CC1CN(C3CC4(CC(NC(=O)OC(C)(C)C)C4)C3)C1)cn2-c1ccc(F)cc1C(=O)N(C)C(C)C (stereo not shown) [Compound 91]
IC50 [1]: 0.155 nM | IC50 ([2]; Homo sapiens, MOLM-14, 48 h): 94 nM

CCC(C1CCN(C(C)=O)CC1)N1CC[C@@H](Cc2cn(-c3ccc(F)cc3C(=O)N(C)C(C)C)c3cncc(C)c23)C1 (single isomer, unassigned) [Compound 246]
IC50 [1]: 0.057 nM | IC50 [2]: 16 nM

Cc1cncc2c1c(CC1CN([C@H](C)C3CCS(=O)(=O)CC3)C1)cn2-c1ccc(F)cc1C(=O)N(C)C(C)C (single isomer, unassigned) [Compound 213a]
IC50 [1]: 0.567 nM | IC50 ([2]; Homo sapiens, MOLM-14, 48 h): 1150 nM

Cc1cncc2c1c(C[C@@H]1CCN(CC3CCOCC3)C1)cn2-c1ccc(F)cc1C(=O)N1CCC[C@H]1CO [Compound 360]
IC50 [1]: 0.127 nM | IC50 ([2]; Homo sapiens, MOLM-14, 48 h): 107 nM

Cc1cncc2c1c(C[C@H]1CCN(CC3CCCCC3)C1)cn2-c1ccc(F)cc1C(=O)N(C)C(C)C [Compound 194]
IC50 [1]: 0.072 nM | IC50 ([2]; Homo sapiens, MOLM-14, 48 h): 66 nM

CC(=O)N1CCC(CN2C[C@H](Cc3cn(-c4ccc(F)cc4C(=O)N(C)C(C)C)c4cncc(C)c34)C[C@@H]2C)CC1 [Compound 132]
IC50 [1]: 1.21 nM | IC50 ([2]; Homo sapiens, MOLM-14, 48 h): ~573 nM

CC(=O)N1CCC(C)(CN2CC[C@@H](Cc3cn(-c4ccc(F)cc4C(=O)N(C[C@H](C)O)C(C)C)c4cncc(C)c34)C2)CC1 [Compound 338]
IC50 [1]: 0.185 nM | IC50 ([2]; Homo sapiens, MOLM-14, 48 h): 37 nM

Cc1cncc2c1c(C[C@@H]1CCN(CC3CCN(C(=O)C(C)(C)O)CC3)C1)cn2-c1ccc(F)cc1C(=O)N1CC2CC1CO2 (stereo partly shown) [Compound 345]
IC50 [1]: 0.204 nM | IC50 ([2]; Homo sapiens, MOLM-14, 48 h): 36 nM
